Measurements as given in paper PMC9750872, “Ras-mutant cancers are sensitive to small molecule inhibition of V-type ATPases in mice” (Nature biotechnology, 2022).
pIC50: −log10 of the molar value. Read-outs that look alike come from different tables or passages of the source.

Tests used:
MEFs KRAS Q61R = assay: Cell proliferation of Ras-less MEFs expressing human KRAS/BRAF; conditions: Mus musculus
Description: (§2) Logarithmically growing cells were plated in antibiotic-free medium supplemented with 2% fetal bovine serum at a density of 5,000 cells per well. The next day, cells were treated in triplicates with increasing doses of in-house small molecule inhibitor drugs and a DMSO vehicle control for 3 days and subsequently assessed for cell viability by measurement of ATP with CellTiter-Glo Luminescent Cell Viability Assay (Promega). Signal intensity was read on a Glomax™ 96 Microplate Luminometer (Promega) with GLOMAX software (version 1.9.3) and percent cell survival was calculated based on the reading of vehicle control cells set as 100% using Excel (2012) and GraphPad Prism (version 6)Each compound was tested a minimum of 2 times with n = 3. All cell proliferation assays (cancer cell lines or MEFs) were done in a similar way.

MEFs bearing BRAFV600E = assay: Macropinocytosis, TMR-dextran uptake; type: cell-based; conditions: Mus musculus; 2 μM 249C 18 h, DMSO = 100%; read-out: inhibition of MP
Description: (§1) Macropinosome visualization was essentially done as previously described. Cells were plated in black, clear bottom CellCarrier-96 Ultra Microplates (PerkinElmer 6055302) and serum-starved for 24 h. The next day, they were treated with 2 μM 249C (1255) for 18 h followed by addition of 70 kDa TMR-Dextran (Invitrogen D1818) and Hoescht for 2 hours at 37 °C prior to 3 × cold PBS washes and fixation in 4% paraformaldehyde for 30 min. Following 3 × cold PBS washes, mounting medium (Vector Laboratories Inc.) was added and images were captured using an Operetta CLS™ fluorescent microscope for High-Content Analysis (PerkinElmer). Image analysis and quantification was performed with a spot segmentation algorithm using the Perkin Elmer Harmony® PhenoLOGIC™ 3.2 software. Briefly, the images were segmented and individual nuclei (DAPI stained) and cell bodies (by digital phase contrast imaging) were identified. The TMR signal was used for the spot segmentation analysis block. […] Data are presented as spots - number of objects per nucleus. For each cell line, 5 DMSO control and 5 249C-treated wells were imaged and a minimum of 3 images were captured per well. Data representing three independent experiments are presented.

MEFs bearing KRASG12V = assay: Macropinocytosis, TMR-dextran uptake; type: cell-based; conditions: Mus musculus; 2 μM 249C 18 h, DMSO = 100%; read-out: inhibition of MP
Description: as §1

MEFs bearing KRASG13D = assay: Macropinocytosis, TMR-dextran uptake; type: cell-based; conditions: Mus musculus; 2 μM 249C 18 h, DMSO = 100%; read-out: inhibition of MP
Description: as §1

MEFs KRAS G13D = assay: Cell proliferation of Ras-less MEFs expressing human KRAS/BRAF; conditions: Mus musculus
Description: Cell proliferation assays of stable cell lines treated with V-ATPase inhibitors 249C and BafA1, HCQ analog (DC661), KRASG12C inhibitor (AMG510) and autophagy inducer (CMA). For each bar, n = 3. Representative of 3 biological replicates (mean ± SD). Two-sided t-test with no adjustments for multiple comparisons.
as §2

[1] = tested on: panel of 53 cancer cell lines; assay: 249C sensitivity in a panel of 53 cancer cell lines; type: cell-based; conditions: Homo sapiens, read-out: median IC50
Description: Figure 1: Optimization of Potency and Drug Properties of Small Molecule Inhibitors of Ras- and Raf-mutant Cells using Viability Screens. (A) Cell viability screen of ~300 small molecules in A549 (KRASG12S), LOX IMVI (BRAFV600E), and MelJuso (HRASG13D and NRASQ61L). Cells were treated with vehicle DMSO or increasing concentrations of small molecules in triplicate for 72 h and ATP content/viability was measured using CellTiter-Glo Luminescent Cell Viability Assay. The results shown for all cell viability figures are representative of at least two independent experiments. […] (F) Quantitative whole proteome analysis of the effects of small molecule treatment by mass spectrometry. A549 cells were treated with DMSO or 68 (30 μM), 226C (1μM) or 249C (1μM) for 48 h prior to analysis of proteomes with TMT labeling followed by quantification relative to the DMSO control. […]
The Cancer Cell Line Encyclopedia (CCLE, http://www.broadinstitute.org/ccle) was used to download somatic mutation data for over 1000 cancer cell lines [(CCLE_DepMap_18q3_maf_20180718.txt) from CCLE at https://depmap.org/portal/download/ (2018)][61]. We filtered the data to retain only mutations (single nucleotide variants, SNVs, and insertion deletions, indels) detected in 53 cell lines that were included in our MTS assays (Fig. 1). […] Genes with multiple mutations in the same cell line were only counted once. […]

MEFs KRAS Q61L = assay: Cell proliferation of Ras-less MEFs expressing human KRAS/BRAF; conditions: Mus musculus
Description: as §2

Work on CN1CCOC(CNC(=O)C2(C)C(c3ccc(Cl)o3)C(c3ccc(F)cc3F)=NN2c2ccc(F)cc2F)C1 (centres unmarked) [Compound 249C] yielded a pIC50 (MEFs KRAS Q61R) of 6.26, an inhibition at 2 µM (MEFs bearing BRAFV600E) of 90% and an inhibition at 2 µM (MEFs bearing KRASG12V) of 73%. For the same compound, the inhibition at 2 µM (MEFs bearing KRASG13D) was 94%, the pIC50 (MEFs KRAS G13D) was 7.15 and the pIC50 ([1]; KRAS/HRAS/NRAS/BRAF mutant cells) was 7.19. For the same compound, the pIC50 ([1]; cells with no mutations in these genes) was 6.44 and the pIC50 (MEFs KRAS Q61L) was 6.51.
